Results as given in patent US4426378A, “Thyrotropin releasing hormone in therapy of shock and as a central nervous system stimulant” (The United States of America as represented by the …, priority 1981, dated 1984).

Columns and labels:
[1] = system: rats; test: Tail-flick procedure (thermal stimulus to the tail); type: in vivo; conditions: n=6
Protocol: (§1) To confirm the lack of effect of TRH upon analgesic responses, an additional group of rats was equipped with intravenous cannulae only. One day later, rats were divided into 3 groups (n=6/group). Group one received TRH alone (2.0 mg/kg--a dose with therapeutic effects in shock), group two received morphine sulfate (4 mg per kg) followed by TRH (2.0 mg per kg), and group three got morphine sulfate alone (4.0 mg per kg). Pain latencies were determined by applying a thermal stimulus to the tail, tail-flick procedure, FIG. 4a, and by measuring how long required for a rat to escape from an enclosure with a heated floor (53° C.), FIG. 4b.

[2] = system: control rats not subjected to shock; test: Cardiovascular effects of i.v. TRH in control rats not subjected to shock; type: in vivo, male Sprague-Dawley rats; conditions: TRH 2 mg/kg i.v.
Text: (§2) Tail-artery and external-jugular vein cannulae were implanted in male Sprague-Dawley rats (250-300 g; Zivic-Miller Labs) according to standard surgical techniques. Twenty-four hours later, the arterial cannula were connected to a microtransducer (Narco Biosystems, RP 1500 attached to a Beckman physiograph, type R). This arrangement permitted continuous measurement of blood pressure and heart rate in awake, freely moving rats in their home cages.
In control rats which were not subjected to shock, the cardiovascular effects of intravenous (i.v.) TRH alone were determined. A dose of 2 mg/kg body weight TRH (Beckman Labs) was injected, followed by a cannula flush (0.2 ml saline) to ensure complete drug delivery. Cardiovascular parameters were monitored for two hours. TRH administration caused a significant increase in mean arterial pressure (MAP) of 11.1±1.5 mm Hg (n-10, Student's t=7.25, p 0.001), with peak effects observed at 5-minute post-injection and persisting for 30 minutes (FIG. 1).

[3] = system: rats subjected to hemorrhagic shock; test: Hemorrhagic shock, Experiment No. 3; type: in vivo; conditions: TRH 2 mg/kg i.v.
Protocol: Another group of rats was subjected to hemorrhagic shock according to our previous experimental design. In a total of 27 rats, blood was withdrawn from the indwelling external jugular vein cannula; MAP fell from 96.5±1.6 mm Hg to 37.2±1.0 mm Hg where it was maintained for 20 minutes. A total of […] (body weight) of blood was removed, a volume approximating 45% of estimated total blood volume. Following the 20 minutes of controlled oligemia, animals were treated with either i.v. TRH (2 mg/kg, m=15) or an equal volume of i.v. saline (1.0 ml/kg, n=12) followed by a 0.2 ml cannula flush. Shed blood was not returned. […] The duration of this effect was about 30 minutes, approximately equivalent to the duration of the pressor response to TRH in normotensive rats not subjected to shock, FIG. 3a. In this model, saline-treated rats also experienced an increase in MAP, a consequence of the fluid volume infused.

[4] = system: rats subjected to endotoxic shock; test: Endotoxic shock (E. coli lipopolysaccharide endotoxin i.v.), Experiment No. 1; type: in vivo, male Sprague-Dawley rats; conditions: TRH 2 mg/kg i.v.
Text: as §2
A second group of rats was subjected to endotoxic vasogenic, septic) shock by the i.v. administration of Escherichia coli lipopolysaccharide endotoxin (15 mg/kg; Difco, control #654109). In these animals, MAP fell to 67-70 mm Hg, which was approximately 26% (24 mm Hg) below baseline levels of 92.7±1.9 mm Hg (n=22). These rats, randomly divided into two groups, were treated with either i.v. TRH (2 mg/kg, n=13) or an equal volume of i.v. saline (1.0 ml/kg, n=11), followed by a 0.2 ml cannula flush.

[5] = system: rats; test: Behavioral effects of intravenous TRH (CNS stimulant); type: in vivo
Protocol: (§3) Follow-up studies were performed to evaluate other physiological parameters, TRH dose-response characteristics, and the effect of TRH on endotoxic shock survival in the rat. The experiments were conducted identically as described above in Experiment No. 1 for initial endotoxic shock studies, except heart rate, pulse pressure, respiration rate, and behavioral measures were examined following treatment with intravenous saline or TRH (0.2, 0.63, 2.0, 6.34, or 20.0 mg per kilogram body weight). Survival at 2 hours post drug treatment was also assessed. […] Pressure fell from 98.0±1.3(SE) millimeters of mercury (mm Hg) to 70.7±1.6 (SE) mm Hg, student's t=13.3, p 0.001.
In addition to its effects upon physiological parameters, intravenous TRH also produced a variety of behavioral effects indicative of its action as a CNS stimulant.

[6] = system: rats; test: Escape from enclosure with heated floor (53° C.); type: in vivo
Protocol: as §1

[7] = system: rats subjected to endotoxic shock; test: Endotoxic shock follow-up: dose-response, cardiorespiratory variables and survival, Experiment No. 2; type: in vivo, rat; conditions: for pulse pressure / change in mean arterial pressure / respiratory rate / heart rate: 15 min following treatment; for survival, alive/dead: 2 hrs following treatment (saline 4/4)
Protocol: as §3
When saline-control rat mortality was compared to mortality in all TRH-treated animals over the 2 hour measurement interval, there was a significant decrease in the lethal effects of endotoxemia produced by a single injection of this substance (Fisher exact probability, p=0.01).

NC(=O)[C@@H]1CCCN1C(=O)[C@H](Cc1c[nH]cn1)NC(=O)[C@@H]1CCC(=O)N1 [TRH, L-pyroglutamyl-L-histidyl-L-proline amide]
pain latency, tail-flick ([1]; TRH alone 2.0 mg/kg i.v.): no effect | effect on morphine-induced analgesia, tail-flick ([1]; morphine sulfate 4 mg per kg followed by TRH 2.0 mg per kg): did not alter the intensity or duration of morphine-induced analgesia | persistence of MAP increase ([2]; control rats): 30 min | time of peak effect on MAP post-injection ([2]; control rats): 5 min | increase in mean arterial pressure (MAP) ([2]; normotensive control rats, n=10): 11.1±1.5 mm Hg | duration of MAP effect [3]: about 30 minutes | MAP higher than saline-control rats ([3]; n=15, first 15 minutes following injection): 20-25 mm Hg | MAP area scores vs saline ([3]; Student's t=2.11, p<0.05): significantly greater | increase in MAP ([4]; n=13, average during first 30 minutes post-treatment, endotoxin 15 mg/kg): 20-25 mm Hg | MAP area scores vs saline ([4]; triangulation of response-time data, Student's t=5.66, p<0.001): significant differences between the two treatment groups | lowest dose at which wet-dog shaking behavior was observed ([5]; intravenous TRH): 0.63 mg per kg | tail-rattling, oral "chewing" stereotypies, and piloerection ([5]; intravenous TRH 6.34 or 20.0 mg per kg body weight): frequently observed | pain latency, escape from heated floor ([6]; TRH alone 2.0 mg/kg i.v., n=6, 53° C.): no effect | effect on morphine-induced analgesia, escape from heated floor ([6]; morphine sulfate 4 mg per kg followed by TRH 2.0 mg per kg, n=6): did not alter the intensity or duration of morphine-induced analgesia | TRH dose vs improvement in MAP ([7]; 15 minutes following treatment, n=34, r=0.43, p<0.02): significant dose-response correlation | pulse pressure ([7]; TRH 0.20 mg/Kg IV, n=8, spread ±2.9): 24.4 mm Hg | change in mean arterial pressure ([7]; TRH 0.20 mg/Kg IV, n=8, spread ±5.1): 21.4 mm Hg | respiratory rate ([7]; TRH 0.20 mg/Kg IV, n=8, spread ±6.8): 107.0 breaths/min. | heart rate ([7]; TRH 0.20 mg/Kg IV, n=8, spread ±16.8): 465.0 beats/min | survival, alive/dead ([7]; TRH 0.20 mg/Kg): 7/1 | respiratory rate ([7]; TRH 0.63 mg/Kg IV, n=8, spread ±4.0): 109.0 breaths/min. | change in mean arterial pressure ([7]; TRH 0.63 mg/Kg IV, n=8, spread ±5.2): 20.9 mm Hg | pulse pressure ([7]; TRH 0.63 mg/Kg IV, n=8, spread ±5.7): 36.2 mm Hg | heart rate ([7]; TRH 0.63 mg/Kg IV, n=8, spread ±22.4): 470.0 beats/min | survival, alive/dead ([7]; TRH 0.63 mg/Kg): 8/0 | pulse pressure ([7]; TRH 2.00 mg/Kg IV, n=8, spread ±3.9): 33.1 mm Hg | change in mean arterial pressure ([7]; TRH 2.00 mg/Kg IV, n=8, spread ±5.1): 24.2 mm Hg | respiratory rate ([7]; TRH 2.00 mg/Kg IV, n=8, spread ±6.9): 125.0 breaths/min. | heart rate ([7]; TRH 2.00 mg/Kg IV, n=8, spread ±24.0): 517.5 beats/min | survival, alive/dead ([7]; TRH 2.00 mg/Kg): 7/1 | change in mean arterial pressure ([7]; TRH 6.34 mg/Kg IV, n=8, spread ±3.7): 35.1 mm Hg | pulse pressure ([7]; TRH 6.34 mg/Kg IV, n=8, spread ±4.1): 37.5 mm Hg | respiratory rate ([7]; TRH 6.34 mg/Kg IV, n=8, spread ±4.3): 147.0 breaths/min. | heart rate ([7]; TRH 6.34 mg/Kg IV, n=8, spread ±21.0): 530.0 beats/min | survival, alive/dead ([7]; TRH 6.34 mg/Kg): 8/0 | effect on pulse pressure and heart rate ([7]; TRH i.v., endotoxic shock): increased pulse pressure and heart rate | effect on respiration rate ([7]; TRH i.v., endotoxic shock): increased in a dose-related manner | survival following endotoxic shock ([7]; all TRH-treated vs saline-control, 2 hour interval, single injection, Fisher exact probability p=0.01): significantly improved
